Results: ChEMBL document CHEMBL4507292 (2021)
pIC50, pKi: −log10 of the molar value.

Columns and labels:
[1] = molecular target: T1, Alpha-2B adrenergic receptor (Homo sapiens) (UniProt P18089); details: Compound concentration 10.0 uM
T1 sequence (whole entry): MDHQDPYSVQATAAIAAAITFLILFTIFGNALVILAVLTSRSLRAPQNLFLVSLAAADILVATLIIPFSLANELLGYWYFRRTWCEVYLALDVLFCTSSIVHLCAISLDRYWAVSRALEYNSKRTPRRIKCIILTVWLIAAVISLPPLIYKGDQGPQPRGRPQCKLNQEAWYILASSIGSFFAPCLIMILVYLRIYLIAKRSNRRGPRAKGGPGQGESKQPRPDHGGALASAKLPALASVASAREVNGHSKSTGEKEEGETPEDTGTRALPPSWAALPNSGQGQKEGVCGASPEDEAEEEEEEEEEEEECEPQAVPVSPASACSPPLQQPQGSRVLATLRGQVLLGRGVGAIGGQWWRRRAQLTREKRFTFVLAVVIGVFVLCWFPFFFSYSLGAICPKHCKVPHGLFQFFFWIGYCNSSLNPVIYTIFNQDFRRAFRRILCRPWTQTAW

D(1B) dopamine receptor = D(1B) dopamine receptor (Homo sapiens, UniProt P21918); assay: Dopamine D5 Eurofins-Panlabs radioligand binding assay; details: concentration not given here
[2] = molecular target: Beta-3 adrenergic receptor (Homo sapiens, UniProt P13945); assay: Inhibition of Adrenergic beta3 at compound concentration of 10.0 uM in the Eurofins-Panlabs radioligand binding assay (Eurofins_assay_204200); set-up: ligand concentration 0.5 nM, non-specific ligand with concentration 1000 uM Alprenolol, incubation time 90 min, incubation temperature 25 C
[3] = molecular target: L-type calcium channel, dihydropyridine site (Cav1.2 alpha-1C) (Homo sapiens, UniProt Q13936); assay: Inhibition of Calcium Channel L-Type, Dihydropyridine at 10 µM in the Eurofins-Panlabs radioligand binding assay (Eurofins_assay_214600); set-up: ligand concentration 0.1 nM, non-specific ligand with concentration 1 µM Nitrendipine, incubation time 90 min, incubation temperature 25 °C; details: Wistar, rat, rat cerebral cortex preparation, probe [3H] Nitrendipine, 0.1 nM; compound concentration 10 uM; target entry is the homologue from another species
[4] = molecular target: T2, Prostaglandin E2 receptor EP3 subtype (Homo sapiens) (UniProt P43115); assay: Prostanoid EP3 Eurofins-Panlabs radioligand binding assay; set-up: ligand concentration 0.5 nM, non-specific ligand with concentration 10 µM Prostaglandin EŽ2 (PGE2), incubation time 60 min, incubation temperature 25 °C
T2 sequence (whole entry): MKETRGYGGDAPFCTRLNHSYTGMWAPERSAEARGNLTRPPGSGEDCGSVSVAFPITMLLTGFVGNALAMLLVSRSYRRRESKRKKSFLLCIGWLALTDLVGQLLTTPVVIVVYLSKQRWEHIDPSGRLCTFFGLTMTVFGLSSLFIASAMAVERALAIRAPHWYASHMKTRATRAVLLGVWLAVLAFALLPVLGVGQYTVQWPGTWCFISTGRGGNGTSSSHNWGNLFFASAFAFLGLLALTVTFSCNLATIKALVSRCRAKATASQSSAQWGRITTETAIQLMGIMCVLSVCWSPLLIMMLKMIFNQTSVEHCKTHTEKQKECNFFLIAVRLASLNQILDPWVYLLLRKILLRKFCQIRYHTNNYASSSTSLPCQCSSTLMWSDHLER

[5] = molecular target: 5-hydroxytryptamine receptor 2A (Homo sapiens) (UniProt P28223); details: Compound concentration 10.0 uM
[6] = molecular target: Vasopressin V2 receptor (Homo sapiens) (UniProt P30518); assay: Vasopressin V2 Eurofins-Panlabs radioligand binding assay; set-up: ligand concentration 0.5 nM; details: Compound concentration 10.0 uM
Phosphodiesterase 3 = Phosphodiesterase 3 (Homo sapiens, UniProt Q14432+Q13370); assay: Inhibition of Phosphodiesterase PDE3 at compound concentration of 10.0 uM in the Eurofins-Panlabs enzyme assay (Eurofins_assay_152000); type: protein assay; set-up: substrate with concentration 1.01 uM [3H] cAMP + cAMP, incubation time 20 min, incubation temperature 25 C
Rattus norvegicus = species: Rattus norvegicus; assay: Inhibition of Glycine, Strychnine-Sensitive at 10 µM in the Eurofins-Panlabs radioligand binding assay (Eurofins_assay_239000); details: Compound concentration 10.0 uM
[7] = molecular target: Somatostatin receptor type 4 (Homo sapiens, UniProt P31391); assay: Somatostatin sst4 Eurofins-Panlabs radioligand binding assay; set-up: ligand concentration 0.1 nM, non-specific ligand with concentration 1 µM Somatostatin-14, incubation time 45 min, incubation temperature 25 °C
[8] = molecular target: Type-2 angiotensin II receptor (Homo sapiens) (UniProt P50052); assay: Angiotensin AT2 Eurofins-Panlabs radioligand binding assay; type: protein assay; details: Compound concentration 10.0 uM
[9] = Inhibition of Atrial Natriuretic Factor (ANF) at 10 µM in the Eurofins-Panlabs radioligand binding assay (Eurofins_assay_211000); details: Cavia porcellus
[10] = molecular target: T3, Cysteinyl leukotriene receptor 1 (Homo sapiens) (UniProt Q9Y271); assay: (§1) Inhibition of Leukotriene, Cysteinyl CysLT1 at 10 µM in the Eurofins-Panlabs radioligand binding assay (Eurofins_assay_250460); set-up: ligand concentration 0.3 nM, non-specific ligand with concentration 0.3 µM Leukotriene D4, incubation time 30 min, incubation temperature 25 °C
T3 sequence (whole entry): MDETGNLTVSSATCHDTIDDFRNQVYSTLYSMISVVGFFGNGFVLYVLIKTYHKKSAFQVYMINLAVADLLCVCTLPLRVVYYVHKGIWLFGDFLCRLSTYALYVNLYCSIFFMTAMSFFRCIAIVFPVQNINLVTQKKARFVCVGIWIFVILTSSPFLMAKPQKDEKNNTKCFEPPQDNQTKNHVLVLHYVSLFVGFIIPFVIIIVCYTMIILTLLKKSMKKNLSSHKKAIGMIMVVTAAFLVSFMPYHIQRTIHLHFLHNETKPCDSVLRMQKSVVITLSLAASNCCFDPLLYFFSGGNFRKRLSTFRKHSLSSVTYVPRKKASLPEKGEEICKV

[11] = molecular target: Cysteinyl leukotriene receptor 1 (Homo sapiens, UniProt Q9Y271); assay: as §1; set-up: ligand concentration 0.3 nM, non-specific ligand with concentration 0.3 µM Leukotriene D4, incubation time 30 min, incubation temperature 25 °C
[12] = molecular target: Histamine H3 receptor (Homo sapiens) (UniProt Q9Y5N1); assay: Histamine H3 Eurofins-Panlabs radioligand binding assay; details: Compound concentration 10.0 uM
[13] = molecular target: 5-hydroxytryptamine receptor 1B (Homo sapiens) (UniProt P28222); assay: Inhibition of Serotonin (5-Hydroxytryptamine) 5-HT1B at 10 µM in the Eurofins-Panlabs radioligand binding assay (Eurofins_assay_271200); details: Compound concentration 10.0 uM
[14] = molecular target: Prostaglandin E2 receptor EP1 subtype (Homo sapiens) (UniProt P34995); assay: Prostanoid EP1 Eurofins-Panlabs radioligand binding assay; details: Compound concentration 10.0 uM
[15] = molecular target: ATP-sensitive inward rectifier potassium channel 11 (Cricetulus griseus) (UniProt A0A3L7HHE1); assay: Inhibition of Potassium Channel [KATP] at 10 µM in the Eurofins-Panlabs radioligand binding assay (Eurofins_assay_265600); details: Cricetinae; Compound concentration 10.0 uM
[16] = molecular target: Melatonin receptor (Gallus gallus) (UniProt P49288+P51050+P49285); assay: Melatonin MT, Non-Selective Eurofins-Panlabs radioligand binding assay; type: protein assay; details: Compound concentration 10.0 uM
[17] = molecular target: Adenosine receptor A1 (Homo sapiens) (UniProt P30542); details: Compound concentration 10.0 uM
Homo sapiens = species: Homo sapiens; assay: (§2) Protein Serine/Threonine Kinase, MAPK14 (p38α) Eurofins-Panlabs enzyme assay; set-up: substrate with concentration 10 µg/mL Myelin Basic Protein (MBP), incubation time 60 min, incubation temperature 25 °C
[18] = as §2; set-up: species or system Homo sapiens; substrate with concentration 10 µg/mL Myelin Basic Protein (MBP), incubation time 60 min, incubation temperature 25 °C

Somatostatin receptor type 4, sequence (P31391 whole entry): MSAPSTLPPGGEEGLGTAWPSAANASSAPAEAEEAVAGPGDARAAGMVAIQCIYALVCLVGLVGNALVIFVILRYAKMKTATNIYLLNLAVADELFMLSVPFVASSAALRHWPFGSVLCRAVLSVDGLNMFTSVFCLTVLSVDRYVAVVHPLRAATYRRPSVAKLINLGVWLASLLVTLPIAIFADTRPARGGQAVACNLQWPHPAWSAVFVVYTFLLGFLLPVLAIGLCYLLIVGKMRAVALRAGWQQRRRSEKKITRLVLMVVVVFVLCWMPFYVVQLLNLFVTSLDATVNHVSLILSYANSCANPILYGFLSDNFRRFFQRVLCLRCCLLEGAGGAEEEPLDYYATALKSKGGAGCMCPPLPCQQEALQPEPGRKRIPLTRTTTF
D(1B) dopamine receptor, sequence (P21918 whole entry): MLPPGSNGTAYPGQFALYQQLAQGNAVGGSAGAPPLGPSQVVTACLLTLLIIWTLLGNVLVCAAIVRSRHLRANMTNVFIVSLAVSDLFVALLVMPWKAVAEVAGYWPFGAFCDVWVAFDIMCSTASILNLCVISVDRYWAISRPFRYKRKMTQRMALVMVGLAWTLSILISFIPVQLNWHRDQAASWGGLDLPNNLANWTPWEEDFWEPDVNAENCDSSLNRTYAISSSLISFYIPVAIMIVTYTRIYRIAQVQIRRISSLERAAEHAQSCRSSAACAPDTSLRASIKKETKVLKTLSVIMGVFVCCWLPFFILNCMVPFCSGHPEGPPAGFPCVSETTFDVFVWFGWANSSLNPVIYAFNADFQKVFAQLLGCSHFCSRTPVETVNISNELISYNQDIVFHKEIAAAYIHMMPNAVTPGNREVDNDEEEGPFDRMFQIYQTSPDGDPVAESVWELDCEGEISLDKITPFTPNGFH
Beta-3 adrenergic receptor, sequence (P13945 whole entry): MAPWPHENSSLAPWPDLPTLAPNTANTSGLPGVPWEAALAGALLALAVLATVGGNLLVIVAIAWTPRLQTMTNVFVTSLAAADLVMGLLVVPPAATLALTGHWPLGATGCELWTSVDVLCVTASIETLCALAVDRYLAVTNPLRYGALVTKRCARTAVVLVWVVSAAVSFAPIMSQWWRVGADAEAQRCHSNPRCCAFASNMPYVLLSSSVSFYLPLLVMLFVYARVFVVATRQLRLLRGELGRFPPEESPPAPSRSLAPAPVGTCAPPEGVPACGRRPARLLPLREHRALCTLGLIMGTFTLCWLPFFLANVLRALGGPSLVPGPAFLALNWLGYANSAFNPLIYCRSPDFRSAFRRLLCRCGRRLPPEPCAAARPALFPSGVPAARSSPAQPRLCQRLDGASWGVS
Histamine H3 receptor (Homo sapiens), sequence (Q9Y5N1 whole entry): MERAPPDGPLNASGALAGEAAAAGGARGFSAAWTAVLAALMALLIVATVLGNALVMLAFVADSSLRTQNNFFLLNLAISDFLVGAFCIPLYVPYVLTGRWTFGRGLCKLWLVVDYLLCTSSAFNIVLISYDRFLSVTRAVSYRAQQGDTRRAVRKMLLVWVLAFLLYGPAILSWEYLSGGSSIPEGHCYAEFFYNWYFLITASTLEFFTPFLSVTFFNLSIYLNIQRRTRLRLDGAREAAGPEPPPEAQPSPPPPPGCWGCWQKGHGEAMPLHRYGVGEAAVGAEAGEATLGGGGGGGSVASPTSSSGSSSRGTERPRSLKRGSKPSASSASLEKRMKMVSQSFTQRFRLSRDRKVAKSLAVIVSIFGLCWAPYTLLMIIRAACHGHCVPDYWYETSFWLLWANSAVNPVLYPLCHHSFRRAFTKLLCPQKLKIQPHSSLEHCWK
5-hydroxytryptamine receptor 1B (Homo sapiens), sequence (P28222 whole entry): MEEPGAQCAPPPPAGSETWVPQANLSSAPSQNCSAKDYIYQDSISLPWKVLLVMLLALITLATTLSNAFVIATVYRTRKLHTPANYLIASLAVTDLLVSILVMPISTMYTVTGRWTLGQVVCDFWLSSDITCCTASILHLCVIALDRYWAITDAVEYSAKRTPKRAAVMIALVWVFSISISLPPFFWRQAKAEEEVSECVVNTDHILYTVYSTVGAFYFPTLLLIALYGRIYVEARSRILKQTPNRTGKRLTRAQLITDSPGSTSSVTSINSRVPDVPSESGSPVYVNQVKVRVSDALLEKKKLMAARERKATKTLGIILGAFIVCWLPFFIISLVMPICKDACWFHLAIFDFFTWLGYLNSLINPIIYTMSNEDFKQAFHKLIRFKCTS
5-hydroxytryptamine receptor 2A (Homo sapiens), sequence (P28223 whole entry): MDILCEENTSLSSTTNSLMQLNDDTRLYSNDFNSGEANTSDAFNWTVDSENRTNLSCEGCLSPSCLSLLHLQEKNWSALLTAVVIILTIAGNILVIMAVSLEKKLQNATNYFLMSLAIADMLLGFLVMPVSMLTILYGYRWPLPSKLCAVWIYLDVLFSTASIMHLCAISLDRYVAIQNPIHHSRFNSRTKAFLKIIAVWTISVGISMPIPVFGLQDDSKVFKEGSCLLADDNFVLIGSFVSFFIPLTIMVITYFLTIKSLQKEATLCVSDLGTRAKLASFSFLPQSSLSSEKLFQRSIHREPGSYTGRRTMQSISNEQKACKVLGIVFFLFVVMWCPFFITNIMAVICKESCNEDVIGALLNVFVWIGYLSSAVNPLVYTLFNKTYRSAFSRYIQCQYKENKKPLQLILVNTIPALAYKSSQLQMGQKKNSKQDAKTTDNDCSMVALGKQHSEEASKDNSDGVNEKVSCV
Prostaglandin E2 receptor EP1 subtype (Homo sapiens), sequence (P34995 whole entry): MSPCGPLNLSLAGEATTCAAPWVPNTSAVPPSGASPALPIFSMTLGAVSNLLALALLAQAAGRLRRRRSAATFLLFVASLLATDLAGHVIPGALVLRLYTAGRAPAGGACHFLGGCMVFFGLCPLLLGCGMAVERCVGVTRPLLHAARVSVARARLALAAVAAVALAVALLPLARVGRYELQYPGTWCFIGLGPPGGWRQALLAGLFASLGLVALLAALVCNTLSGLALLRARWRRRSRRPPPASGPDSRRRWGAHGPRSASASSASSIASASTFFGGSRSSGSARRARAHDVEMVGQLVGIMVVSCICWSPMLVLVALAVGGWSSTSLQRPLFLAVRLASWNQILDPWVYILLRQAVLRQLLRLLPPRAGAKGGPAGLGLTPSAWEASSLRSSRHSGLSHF
ATP-sensitive inward rectifier potassium channel 11 (Cricetulus griseus), sequence (A0A3L7HHE1 as listed by the source): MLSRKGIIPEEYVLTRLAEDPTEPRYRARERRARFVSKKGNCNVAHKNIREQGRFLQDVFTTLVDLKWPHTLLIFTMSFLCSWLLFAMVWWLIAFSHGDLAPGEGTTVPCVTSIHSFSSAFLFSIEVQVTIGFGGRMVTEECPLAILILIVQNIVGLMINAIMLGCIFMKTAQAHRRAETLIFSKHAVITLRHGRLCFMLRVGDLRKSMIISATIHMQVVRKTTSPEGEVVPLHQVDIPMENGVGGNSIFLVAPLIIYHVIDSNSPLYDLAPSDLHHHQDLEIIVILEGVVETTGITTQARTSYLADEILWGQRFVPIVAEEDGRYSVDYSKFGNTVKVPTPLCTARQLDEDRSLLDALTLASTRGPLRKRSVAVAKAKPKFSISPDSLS
Type-2 angiotensin II receptor (Homo sapiens), sequence (P50052 whole entry): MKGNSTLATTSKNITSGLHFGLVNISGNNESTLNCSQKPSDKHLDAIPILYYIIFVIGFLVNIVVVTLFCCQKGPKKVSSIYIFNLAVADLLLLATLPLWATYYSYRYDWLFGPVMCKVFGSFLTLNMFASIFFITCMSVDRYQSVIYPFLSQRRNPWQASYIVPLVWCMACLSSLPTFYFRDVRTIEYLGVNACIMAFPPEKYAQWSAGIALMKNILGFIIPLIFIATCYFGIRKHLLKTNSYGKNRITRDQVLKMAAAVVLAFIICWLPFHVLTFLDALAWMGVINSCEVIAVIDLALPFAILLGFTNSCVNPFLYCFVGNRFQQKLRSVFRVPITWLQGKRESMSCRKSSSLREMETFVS
Adenosine receptor A1 (Homo sapiens), sequence (P30542 whole entry): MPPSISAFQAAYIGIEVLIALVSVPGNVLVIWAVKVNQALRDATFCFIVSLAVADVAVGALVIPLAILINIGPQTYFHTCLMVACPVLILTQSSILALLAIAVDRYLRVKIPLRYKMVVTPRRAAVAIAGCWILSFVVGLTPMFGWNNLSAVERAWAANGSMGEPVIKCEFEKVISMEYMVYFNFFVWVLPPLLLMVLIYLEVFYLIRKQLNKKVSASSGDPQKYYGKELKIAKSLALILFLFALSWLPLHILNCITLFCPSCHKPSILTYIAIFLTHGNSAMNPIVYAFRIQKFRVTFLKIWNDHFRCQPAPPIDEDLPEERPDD
Vasopressin V2 receptor (Homo sapiens), sequence (P30518 whole entry): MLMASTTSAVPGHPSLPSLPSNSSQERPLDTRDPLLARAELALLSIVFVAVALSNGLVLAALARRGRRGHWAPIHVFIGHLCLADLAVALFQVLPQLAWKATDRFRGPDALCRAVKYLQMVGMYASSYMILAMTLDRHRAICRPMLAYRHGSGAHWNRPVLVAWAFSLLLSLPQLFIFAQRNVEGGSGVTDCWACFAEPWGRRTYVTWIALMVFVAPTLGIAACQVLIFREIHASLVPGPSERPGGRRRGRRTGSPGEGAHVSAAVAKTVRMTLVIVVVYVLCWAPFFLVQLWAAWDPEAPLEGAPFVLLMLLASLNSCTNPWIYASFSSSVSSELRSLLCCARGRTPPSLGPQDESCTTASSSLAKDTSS

With `O=C(O)c1cc(-c2ccc(C3CCNCC3)cc2)c2ccc(-c3ccc(C(F)(F)F)cc3)cc2c1` [PPTN] the inhibition [1] was -1%, the inhibition (D(1B) dopamine receptor) was 7% and the pIC50 [2] was 5.02. For the same compound, the pKi [2] was 5.14, the inhibition at 90 min, 10 µM [3] was 20% (not active) and the inhibition ([4]; Compound concentration 0.01 uM) was 11%. The inhibition ([4]; Compound concentration 0.1 uM) was 14%, the inhibition ([4]; Compound concentration 1.0 uM) was 4% and the inhibition ([4]; Compound concentration 10.0 uM) was 53%. The inhibition [5] was 42%, the inhibition [6] was 28% and the IC50 (Phosphodiesterase 3) was 51.5 µM. For the same compound, the inhibition (Phosphodiesterase 3; Compound concentration 0.1 uM) was -7%, the inhibition (Phosphodiesterase 3; Compound concentration 1.0 uM) was 4% and the inhibition (Phosphodiesterase 3; Compound concentration 10.0 uM) was 28%. It also gave an inhibition (Phosphodiesterase 3; Compound concentration 100.0 uM) of 59%, an inhibition (Rattus norvegicus) of -3% and a pIC50 [7] of 5.28. The inhibition ([7]; Compound concentration 0.01 uM) was -5%, the inhibition ([7]; Compound concentration 0.1 uM) was 7% and the inhibition ([7]; Compound concentration 1.0 uM) was 17%. For the same compound, the inhibition ([7]; Compound concentration 10.0 uM) was 65%, the inhibition [8] was 11% and the inhibition at 10 µM [9] was -1% (not active). It also gave an inhibition ([10]; Compound concentration 0.01 uM) of 0%, an inhibition ([10]; Compound concentration 0.1 uM) of 13% and an inhibition ([10]; Compound concentration 1.0 uM) of 65%. For the same compound, the inhibition ([10]; Compound concentration 10.0 uM) was 97%, the pIC50 [11] was 6.25 and the pKi [11] was 6.64. It also gave an inhibition [12] of 0%, an inhibition [13] of -4% and an inhibition [14] of 4%. It also gave an inhibition [15] of 1%, an inhibition [16] of -7% and an inhibition [17] of -2%. It also gave an inhibition (Homo sapiens; Compound concentration 0.01 uM) of 9%, an inhibition (Homo sapiens; Compound concentration 0.1 uM) of 0% and an inhibition (Homo sapiens; Compound concentration 1.0 uM) of -7%. It also gave a pIC50 [18] of 8.53.
